Results reported in US7862844B2, “Taste improving substances” (Quest International Services B.V., priority 2005, dated 2011).

Key:
[1] = samples tasted by a professional panel
Description: The following samples were prepared:
A: 0.6% NaCl and 0.03% MSG
B: 0.01% Fraction 2 as obtained in example 1
C: 0.6% NaCl and 0.03% MSG and 0.5 ppt Fraction B as obtained in example 1
D: 0.6% NaCl and 0.03% MSG and 0.4 ppb Fraction A as obtained in example 1
The samples were tasted by a professional panel and described as follows: […]

[2] = tasting different fractions of the Example 1 product (LC-MS, 1H NMR identification); conditions: fractions of the lactic acid/GMP reaction product of Example 1
Description: 1000 g of lactic acid (about 90% pure), 50 g of NaCl and 250 g of GMP were thoroughly mixed. The mixture was heated and stirred at 100° C. for 4 hour. The mixture was cooled to 60° C. and 4000 g of ethyl acetate was added. The mixture was stirred for 1 h. Next, the mixture was filtered over a glass filter and the filter residue was washed with 1000 g ethyl acetate. Thus, 362 g of an almost white powder was obtained. The main taste components of the obtained product were identified by LC-MS and tasting different fractions.

| Substance | taste description by professional panel ([1]; sample D: 0.4 ppb of the fraction with 0.6% NaCl and 0.03% MSG (base alone: salty, umami)) | taste of the fractions containing the substance [2] | taste description by professional panel ([1]; sample B: 0.01% of the fraction alone) | taste description by professional panel ([1]; sample C: 0.5 ppt of the fraction with 0.6% NaCl and 0.03% MSG (base alone: salty, umami)) |
| --- | --- | --- | --- | --- |
| O-Lactoyl-GMP [Fraction A] | salty, umami, full, after taste and lingering | “long-lasting” and “kokumi” |  |  |
| N-Lactoyl-GMP [Fraction B] |  | “long-lasting” and “kokumi” | mild acidic, late onset umami, kokumi, full, sweet, very lingering | salty, umami, full, mouthfeel, kokumi, salivating and very lingering |
